Laboratory results: ChEMBL document CHEMBL6071211, “Invention of VH-937, a Potent HIV-1 Maturation Inhibitor with the Potential for Infrequent Oral Dosing in Humans” (ACS Med Chem Lett, 2024)
In brackets after ≈: the same amount, converted by molar mass.

Legend:
[1] = system: Human immunodeficiency virus 1; assay: Binding affinity to HIV1 Gag A364V mutant assessed as dissociation half life by virus-like particle (VLP) assay
[2] = system: Human immunodeficiency virus 1; assay: In vitro antiviral activity against fully replicating wild type HIV1 NL4-3; type: functional, organism-based; details: Human immunodeficiency virus 1, NL4-3
[3] = system: Human immunodeficiency virus 1; assay: In vitro antiviral activity against fully replicating HIV1 harboring Gag V370A mutant by multicycle assay; type: functional, organism-based
[4] = system: Human immunodeficiency virus 1; assay: In vitro antiviral activity against fully replicating HIV1 harboring Gag V370A/deltaV371 mutant by multicycle assay; type: functional, organism-based
[5] = system: Human immunodeficiency virus 1; assay: In vitro antiviral activity against fully replicating HIV1 harboring Gag T332S/[…]/prR41G mutant by multicycle assay; type: functional, organism-based
[6] = system: Human immunodeficiency virus 1; assay: Ratio of EC50 for antiviral activity against fully replicating HIV1 harboring Gag V370A/deltaV371 by multicycle assay to EC50 for antiviral activity against fully replicating wild type HIV1 NLRepRluc-P373S by multicycle assay; type: functional
[7] = system: Human immunodeficiency virus 1; assay: In vitro antiviral activity against fully replicating HIV1 harboring Gag deltaV370 mutant assessed as maximum percent inhibition by multicycle assay relative to control; type: functional
[8] = system: Human immunodeficiency virus 1; assay: In vitro antiviral activity against fully replicating HIV1 harboring Gag V370A/deltaV371 mutant assessed as maximum percent inhibition by multicycle assay relative to control; type: functional
[9] = system: Human immunodeficiency virus 1; assay: In vitro antiviral activity against fully replicating HIV1 harboring Gag […]/V370A mutant assessed as maximum percent inhibition by multicycle assay relative to control; type: functional
[10] = system: Human immunodeficiency virus 1; assay: In vitro antiviral activity against fully replicating HIV1 harboring Gag T332S/[…]/prR41G mutant assessed as maximum percent inhibition by multicycle assay relative to control; type: functional
[11] = system: Human immunodeficiency virus 1; assay: In vitro antiviral activity against fully replicating wild type pseudotype HIV1 NLRepRluc-P373S by single cycle assay; type: functional, organism-based
[12] = system: Human immunodeficiency virus 1; assay: In vitro antiviral activity against fully replicating pseudotype HIV1 harboring Gag V3621/V370A mutant by single cycle assay; type: functional, organism-based
[13] = system: Human immunodeficiency virus 1; assay: In vitro antiviral activity against fully replicating pseudotype HIV1 harboring Gag T332S/[…]/prR41G mutant by single cycle assay; type: functional, organism-based
[14] = system: Human immunodeficiency virus 1; assay: In vitro antiviral activity against fully replicating pseudotype HIV1 harboring Gag A364V mutant by single cycle assay; type: functional, organism-based
[15] = system: Human immunodeficiency virus 1; assay: Ratio of EC50 for antiviral activity against fully replicating pseudotype HIV1 harboring Gag V370A mutant by single cycle assay to EC50 for antiviral activity against fully replicating wild type pseudotype HIV1 NLRepRluc-P373S by single cycle assay; type: functional
[16] = system: Human immunodeficiency virus 1; assay: Ratio of EC50 for antiviral activity against fully replicating pseudotype HIV1 harboring Gag deltaV370 mutant by single cycle assay to EC50 for antiviral activity against fully replicating wild type pseudotype HIV1 NLRepRluc-P373S by single cycle assay; type: functional
[17] = system: Human immunodeficiency virus 1; assay: In vitro antiviral activity against fully replicating wild type pseudotype HIV1 NLRepRluc-P373S assessed as maximum percent inhibition by single cycle assay relative to control; type: functional
[18] = system: Human immunodeficiency virus 1; assay: In vitro antiviral activity against fully replicating pseudotype HIV1 harboring Gag deltaV370 mutant assessed as maximum percent inhibition by single cycle assay relative to control; type: functional
[19] = system: Human immunodeficiency virus 1; assay: In vitro antiviral activity against fully replicating pseudotype HIV1 harboring Gag T332S/[…]/prR41G mutant assessed as maximum percent inhibition by single cycle assay relative to control; type: functional
[20] = system: Human immunodeficiency virus 1; assay: In vitro antiviral activity against HIV1 subtype B clinical isolate 92T593; type: functional, organism-based; details: Human immunodeficiency virus 1, 92T593
[21] = system: Human immunodeficiency virus 1; assay: In vitro antiviral activity against HIV1 subtype C clinical isolate 97ZA009; type: functional, organism-based; details: Human immunodeficiency virus 1, 97ZA009
[22] = Volume of distribution at steady state in mouse at 1 mg/kg, iv; type: ADME, organism-based; details: in vivo, read-out: Vdss
[23] = Elimination half life in mouse at 5 mg/kg, po; type: ADME, organism-based; details: in vivo, read-out: beta t1/2 (converted)
[24] = Oral bioavailability in mouse at 5 mg/kg; type: ADME, organism-based; details: in vivo
[25] = AUC (infinity) in rat at 5 mg/kg, po; type: ADME, organism-based; details: in vivo
[26] = Oral bioavailability in rat at 5 mg/kg; type: ADME, organism-based; details: in vivo
[27] = AUC (infinity) in dog at 2 mg/kg, iv; type: ADME, organism-based, Canis lupus familiaris; details: in vivo
[28] = Elimination half life in dog at 2 mg/kg, iv; type: ADME, organism-based, Canis lupus familiaris; details: in vivo, read-out: beta t1/2 (converted)
[29] = Clearance in dog at 2 mg/kg, iv; type: ADME, organism-based, Canis lupus familiaris; details: in vivo
[30] = Volume of distribution at steady state in dog at 2 mg/kg, iv; type: ADME, organism-based, Canis lupus familiaris; details: in vivo, read-out: Vdss
[31] = AUC (infinity) in dog at 5 mg/kg, po; type: ADME, organism-based, Canis lupus familiaris; details: in vivo
[32] = Elimination half life in dog at 5 mg/kg, po; type: ADME, organism-based, Canis lupus familiaris; details: in vivo, read-out: beta t1/2 (converted)
[33] = Oral bioavailability in dog at 5 mg/kg; type: ADME, organism-based, Canis lupus familiaris; details: in vivo
[34] = Volume of distribution at steady state in Cynomolgus monkey at 2 mg/kg, iv; type: ADME, organism-based, Macaca fascicularis; details: in vivo, read-out: Vdss
[35] = AUC (infinity) in Cynomolgus monkey at 5 mg/kg, po; type: ADME, organism-based, Macaca fascicularis; details: in vivo
[36] = Elimination half life in Cynomolgus monkey at 5 mg/kg, po; type: ADME, organism-based, Macaca fascicularis; details: in vivo, read-out: beta t1/2 (converted)
[37] = Metabolic stability in human liver microsomes assessed as half life; type: ADME, Microsome
[38] = Lipophilicity, logD of compound; type: physicochemical; details: octanol/water
[39] = Aqueous solubility of compound in fed state simulated intestinal fluid (FeSSIF); type: physicochemical; details: simulated gi fluid
Cytochrome P450 2C8 = molecular target: T1, Cytochrome P450 2C8 (Homo sapiens, UniProt P10632); assay: Inhibition of CYP2C8 (unknown origin); type: ADME
T1 sequence (P10632 whole entry): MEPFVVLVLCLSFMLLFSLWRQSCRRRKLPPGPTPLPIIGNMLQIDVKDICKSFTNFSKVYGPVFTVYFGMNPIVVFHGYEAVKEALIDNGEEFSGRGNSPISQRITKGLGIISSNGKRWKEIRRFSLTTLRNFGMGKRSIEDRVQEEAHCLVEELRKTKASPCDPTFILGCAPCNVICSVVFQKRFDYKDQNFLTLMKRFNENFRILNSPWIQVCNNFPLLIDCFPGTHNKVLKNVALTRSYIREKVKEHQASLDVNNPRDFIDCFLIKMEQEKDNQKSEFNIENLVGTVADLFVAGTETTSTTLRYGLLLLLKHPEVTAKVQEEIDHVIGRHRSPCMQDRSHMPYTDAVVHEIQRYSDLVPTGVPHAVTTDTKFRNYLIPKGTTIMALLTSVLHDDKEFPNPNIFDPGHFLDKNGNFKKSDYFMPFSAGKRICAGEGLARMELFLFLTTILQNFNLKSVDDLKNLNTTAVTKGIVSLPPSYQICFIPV

Cytochrome P450 2C9 = Cytochrome P450 2C9 (Homo sapiens, UniProt P11712); assay: Inhibition of CYP2C9 (unknown origin); type: ADME
Cytochrome P450 2C9, sequence (P11712 whole entry): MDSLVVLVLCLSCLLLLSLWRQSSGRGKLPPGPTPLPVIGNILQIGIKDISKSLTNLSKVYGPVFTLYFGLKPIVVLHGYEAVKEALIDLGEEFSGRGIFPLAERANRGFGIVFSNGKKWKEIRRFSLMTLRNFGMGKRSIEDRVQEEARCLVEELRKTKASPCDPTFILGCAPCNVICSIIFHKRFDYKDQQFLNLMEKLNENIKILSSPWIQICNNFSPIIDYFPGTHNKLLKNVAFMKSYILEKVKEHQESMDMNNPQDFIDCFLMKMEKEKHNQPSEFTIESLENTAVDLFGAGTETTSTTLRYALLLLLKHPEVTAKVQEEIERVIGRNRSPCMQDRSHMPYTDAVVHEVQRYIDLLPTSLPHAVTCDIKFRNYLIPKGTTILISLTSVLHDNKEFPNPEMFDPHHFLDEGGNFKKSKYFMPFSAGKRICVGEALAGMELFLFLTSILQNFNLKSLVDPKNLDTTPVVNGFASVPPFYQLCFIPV

Cytochrome P450 3A4 = Cytochrome P450 3A4 (Homo sapiens, UniProt P08684); assay: Inhibition of CYP3A4 (unknown origin); type: ADME
Cytochrome P450 3A4, sequence (P08684 whole entry): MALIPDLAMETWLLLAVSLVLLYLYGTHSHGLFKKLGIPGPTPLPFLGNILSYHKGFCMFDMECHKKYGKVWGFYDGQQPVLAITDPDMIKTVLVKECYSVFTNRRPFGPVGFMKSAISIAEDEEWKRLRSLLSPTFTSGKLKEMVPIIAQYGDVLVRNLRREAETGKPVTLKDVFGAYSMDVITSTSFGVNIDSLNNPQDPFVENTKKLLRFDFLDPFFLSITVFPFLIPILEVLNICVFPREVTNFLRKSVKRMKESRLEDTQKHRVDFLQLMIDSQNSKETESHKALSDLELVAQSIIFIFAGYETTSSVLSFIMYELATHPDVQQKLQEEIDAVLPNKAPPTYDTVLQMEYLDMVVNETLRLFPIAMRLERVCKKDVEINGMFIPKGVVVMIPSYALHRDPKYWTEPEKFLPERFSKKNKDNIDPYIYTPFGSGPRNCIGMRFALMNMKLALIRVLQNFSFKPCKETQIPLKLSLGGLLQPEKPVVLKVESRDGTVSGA

[40] = Genotoxicity in Salmonella typhimurium by Ames test; type: toxicity; details: salmonella enterica subsp. enterica serovar typhimurium
[41] = Toxicity in normal healthy human volunteers assessed as adverse effect at 10 mg for 15 days and followed by 30 mg; details: in vivo, 360 h, time 15 day

**Q.** Which results are given for `C=C(C)[C@@H]1CC[C@]2(NCCN3CCS(=O)(=O)CC3)CC[C@]3(C)[C@H](CC[C@@H]4[C@@]5(C)CC=C(C6=CC[C@](COc7ncccc7C#N)(C(=O)O)CC6)C(C)(C)[C@@H]5CC[C@]43C)[C@@H]12`?
**A.** T1/2 [1]: 0.483 h; EC50 [2]: 1.8 nM; EC50 [3]: 4 nM; EC50 [4]: 5 nM; EC50 [5]: 8 nM; Ratio EC50 [6]: 2.5; Imax [7]: 97.6%; Imax [8]: 92.2%; Imax [9]: 94%; Imax [10]: 98%; EC50 [11]: 5 nM; EC50 [12]: 11 nM; EC50 [13]: 24 nM; EC50 [14]: 32 nM; Ratio EC50 [15]: 1.2; Ratio EC50 [16]: 2.4; Imax [17]: 99%; Imax [18]: 100%; Imax [19]: 96%; EC50 [20]: 1 nM; EC50 [21]: 5 nM; Vd [22]: 0.53 L/kg; half-life [23]: 14.5 h; bioavailability [24]: 46%; AUC(0-inf) [25]: 36.3 µM·h; bioavailability [26]: 45.1%; AUC(0-inf) [27]: 99.8 µM·h; half-life [28]: 26.9 h; clearance [29]: 0.21 mL/min/kg; Vd [30]: 0.43 L/kg; AUC(0-inf) [31]: 120 µM·h; half-life [32]: 26.9 h; bioavailability [33]: 59%; Vd [34]: 0.3 L/kg; AUC(0-inf) [35]: 56.3 µM·h; half-life [36]: 11.4 h; half-life [37]: > 2 h; logD [38]: 4.74; solubility [39]: 363 µg/mL (≈ 439 µM); IC50 (Cytochrome P450 2C8): > 4400 nM; IC50 (Cytochrome P450 2C9): > 4400 nM; IC50 (Cytochrome P450 3A4): > 4400 nM; Activity [40]: Non-Toxic; Activity [41]: Non-Toxic
